Several values for one entry are separate records, joined by “and”; a condition that tells them apart may be missing. Equal values may be shown once. One block for each molecule: values may come before it.
Assays:
liver = experiment: In vivo Fluc activity of FlucmRNA-loaded LNP by in vivo imaging, liver; conditions: Balb/c mice, 6 hours; for Fluc Activity in liver: FlucmRNA-loaded LNP i.v. 0.1 mg mRNA/kg
In short: (§1)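 Female Balb/c mice, 7 weeks old, received LNP i.v. at 0.1 mg mRNA/kg. At 6 h, luciferin was given via tail vein at 1.5 mg per mouse, and liver and spleen luminescence was imaged as Avg Radiance [p/s/cm2/sr] near 560 nm.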

[1] = siRNA/mRNA encapsulation rate by Ribogreen reagent (section IV); format: physicochemical; conditions: for % siRNA encapsulation: F7siRNA-loaded LNP, 50:10:38.5:1.5, N/P ratio 6; for % mRNA encapsulation: FlucmRNA-loaded LNP, 50:10:38.5:1.5
In short: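 LNPs diluted in TE buffer to 8 μg/mL nucleic acid for surface RNA, or to 1.2 μg/mL with 1% Triton X-100 for total RNA. RiboGreen fluorescence (ex 485/em 528 nm) quantified against a Triton-containing standard curve (0-2.5 μg/mL). Encapsulation % = (total − surface)/total × 100.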

[2] = Storage stability of FlucmRNA-loaded LNP at −80, 5, 25 and 40° C.; format: physicochemical; conditions: for period for which quality remained good, −80° C.: maximum storage period 1 week; for period for which quality remained good, 5° C. / period for which quality remained good, 25° C. / period for which quality remained good, 40° C. (days) / period for which quality remained good, 40° C. (weeks): maximum storage period 5 weeks
In short: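 FlucmRNA-loaded LNPs held at −80, 5, 25 or 40° C; at each time point size, PDI and encapsulation measured. Quality deemed maintained while size stays within ±20 nm of preparation day, PDI ≤0.2 and encapsulation ≥80%; value is the period meeting all three.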

F7 = experiment: In vivo F7 knockdown, plasma F7 enzyme activity (BIOPHEN FVII), Balb/c mice; conditions: for F7 enzyme activity (%) / F7 enzyme activity (Ratio using MC3 as 1): i.v. 0.025 mg siRNA/kg, plasma at 24 hours; for F7 enzyme activity (%): untreated mice as 100%; for F7 enzyme activity (Ratio using MC3 as 1): relative plasma F7 activity of MC3 LNP as 1; for knockdown activity, compared with MC3: F7siRNA-loaded LNP, versus LNP comprising MC3
In short: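 Female Balb/c mice, 5 weeks old, received F7 siRNA lipid nanoparticles i.v. at 0.025 mg siRNA/kg; plasma F7 activity measured chromogenically (BIOPHEN FVII) 24 h later. Values are % of untreated mice, also expressed as a ratio to MC3-containing nanoparticles set at 1.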

spleen = experiment: In vivo Fluc activity of FlucmRNA-loaded LNP by in vivo imaging, spleen; conditions: Balb/c mice, 6 hours; for Fluc Activity in spleen: FlucmRNA-loaded LNP i.v. 0.1 mg mRNA/kg; for Fluc activity in the spleen, compared with CL4F6 / Fluc activity in the spleen, compared with CL15F6: 0.1 mg mRNA/kg; for Fluc activity in the spleen, compared with CL4F6: versus LNP comprising CL4F6 (Tables 5 and 6); for Fluc activity in the spleen, compared with CL15F6: versus LNP comprising CL15F6 (Table 7)
In short: as §1

[3] = Average particle size (ζ-Average) and PDI by dynamic light scattering (Zetasizer Nano ZSP); format: physicochemical
In short: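 Lipid nanoparticles dispersed in PBS(−) were sized by dynamic light scattering, giving the ζ-Average diameter and polydispersity index (PDI).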

[4] = F7siRNA-loaded LNP, 50:10:38.5:1.5, N/P ratio 6
[5] = FlucmRNA-loaded LNP, 50:10:38.5:1.5
[6] = FlucmRNA-loaded LNP, lipid:DSPC:cholesterol:DMG-PEG2K 50:10:38.5:1.5

Compound: CCCCC(CC)C(=O)OCCCCCCC(O)(CCCCCCOC(=O)C(CC)CCCC)CCCCN(CCC)CCC (centres unmarked) [CL4F 6-2]
Fluc Activity in liver (liver): 1.34E+03 Avg Radiance [p/s/cm2/sr]
% siRNA encapsulation [1]: 56.9%
% mRNA encapsulation [1]: 41.4%
quality at production (storage stability criteria) ([2]; criteria: PDI 0.2 or less, encapsulation 80% or more): Does not meet the criteria for “good” at production
F7 enzyme activity (%) (F7): 54.8%
Fluc Activity in spleen (spleen): 1.24E+05 Avg Radiance [p/s/cm2/sr]
PDI [3, 4]: 0.298
ζ-Average (nm) [3, 4]: 274.50 nm
PDI [3, 5]: 0.069
ζ-Average (nm) [3, 6]: 218.20 nm

Compound: CCCCCCCCCCCCC(CC)C(=O)OCCCCCCC(O)(CCCCCCOC(=O)C(CC)CCCCCCCCCCCC)CCCCN(CCC)CCC (centres unmarked) [CL4F 14-2]
Fluc Activity in liver (liver): 4.08E+07 Avg Radiance [p/s/cm2/sr]
% siRNA encapsulation [1]: 98.0%
% mRNA encapsulation [1]: 94.0%
period for which quality remained good, −80° C. [2]: 0 week
period for which quality remained good, 5° C. [2]: 0 week weeks
period for which quality remained good, 25° C. [2]: 0 week weeks
period for which quality remained good, 40° C. (days) [2]: 0 day days
F7 enzyme activity (%) (F7): 7.9%
Fluc activity in the spleen, compared with CL4F6 (spleen): higher Fluc activity
Fluc Activity in spleen (spleen): 3.66E+06 Avg Radiance [p/s/cm2/sr]
PDI [3, 4]: 0.076
ζ-Average (nm) [3, 4]: 80.87 nm
PDI [3, 5]: 0.078
ζ-Average (nm) [3, 6]: 74.02 nm

Compound: CCCCCCCCCCCC(CCC)C(=O)OCCCCCCC(O)(CCCCCCOC(=O)C(CCC)CCCCCCCCCCC)CCCCN(CCC)CCC (centres unmarked) [CL4F 13-3]
Fluc Activity in liver (liver): 7.34E+07 Avg Radiance [p/s/cm2/sr]
% siRNA encapsulation [1]: 99.7%
% mRNA encapsulation [1]: 96.3%
period for which quality remained good, −80° C. [2]: 0 week
period for which quality remained good, 5° C. [2]: 0 week weeks
period for which quality remained good, 25° C. [2]: 0 week weeks
period for which quality remained good, 40° C. (days) [2]: 0 day days
F7 enzyme activity (%) (F7): 8.4%
Fluc activity in the spleen, compared with CL4F6 (spleen): higher Fluc activity
Fluc Activity in spleen (spleen): 7.30E+06 Avg Radiance [p/s/cm2/sr]
PDI [3, 4]: 0.023
ζ-Average (nm) [3, 4]: 92.25 nm
PDI [3, 5]: 0.044
ζ-Average (nm) [3, 6]: 83.05 nm

Compound: CCCCCCCCCCC(CCCC)C(=O)OCCCCCCC(O)(CCCCCCOC(=O)C(CCCC)CCCCCCCCCC)CCCCN(CCC)CCC (centres unmarked) [CL4F 12-4]
Fluc Activity in liver (liver): 7.70E+07 Avg Radiance [p/s/cm2/sr]
% siRNA encapsulation [1]: 100.1%
% mRNA encapsulation [1]: 99.0%
period for which quality remained good, −80° C. [2]: 1 week
period for which quality remained good, 5° C. [2]: 5 weeks
period for which quality remained good, 25° C. [2]: 5 weeks
period for which quality remained good, 40° C. (weeks) [2]: 1 week weeks
F7 enzyme activity (%) (F7): 5%
Fluc activity in the spleen, compared with CL4F6 (spleen): higher Fluc activity
Fluc Activity in spleen (spleen): 3.19E+06 Avg Radiance [p/s/cm2/sr]
PDI [3, 4]: 0.011
ζ-Average (nm) [3, 4]: 94.55 nm
PDI [3, 5]: 0.015
ζ-Average (nm) [3, 6]: 84.57 nm

Compound: CCCCCCCCC(CCCC)C(=O)OCCCCCCC(O)(CCCCCCOC(=O)C(CCCC)CCCCCCCC)CCCCN(CCC)CCC (centres unmarked) [CL4F 10-4]
Fluc Activity in liver (liver): 1.20E+08 Avg Radiance [p/s/cm2/sr]
% siRNA encapsulation [1]: 100.1%
% mRNA encapsulation [1]: 99.8%
period for which quality remained good, −80° C. [2]: 1 week
period for which quality remained good, 5° C. [2]: 5 weeks
period for which quality remained good, 25° C. [2]: 5 weeks
period for which quality remained good, 40° C. (days) [2]: 0 day days
knockdown activity, compared with MC3 (F7): higher knockdown activity
F7 enzyme activity (%) (F7): 1.7%
Fluc activity in the spleen, compared with CL4F6 (spleen): higher Fluc activity
Fluc Activity in spleen (spleen): 6.70E+06 Avg Radiance [p/s/cm2/sr]
PDI [3, 4]: 0.021
ζ-Average (nm) [3, 4]: 95.37 nm
PDI [3, 5]: 0.041
ζ-Average (nm) [3, 6]: 84.92 nm

Compound: CCCCCCCCCCC(CCCCCC)C(=O)OCCCCCCC(O)(CCCCCCOC(=O)C(CCCCCC)CCCCCCCCCC)CCCCN(CCC)CCC (centres unmarked) [CL4F 12-6]
Fluc Activity in liver (liver): 5.86E+07 Avg Radiance [p/s/cm2/sr]
% siRNA encapsulation [1]: 99.3% and 99.6%
% mRNA encapsulation [1]: 99.7%
period for which quality remained good, −80° C. [2]: 1 week
period for which quality remained good, 5° C. [2]: 5 weeks
period for which quality remained good, 25° C. [2]: 5 weeks
period for which quality remained good, 40° C. (weeks) [2]: 5 weeks
knockdown activity, compared with MC3 (F7): higher knockdown activity
F7 enzyme activity (Ratio using MC3 as 1) (F7): 0.18
F7 enzyme activity (%) (F7): 6%
Fluc Activity in spleen (spleen): 1.72E+06 Avg Radiance [p/s/cm2/sr]
PDI [3, 4]: 0.012 and 0.008
ζ-Average (nm) [3, 4]: 92.28 nm and 94.26 nm
PDI [3, 5]: 0.017
ζ-Average (nm) [3, 6]: 82.84 nm

Now from value to molecule, other results behind:

% siRNA encapsulation [1]: 99.0%
% mRNA encapsulation [1]: 94.0%
period for which quality remained good, −80° C. [2]: 0 week
period for which quality remained good, 5° C. [2]: 0 weeks
period for which quality remained good, 25° C. [2]: 0 weeks
period for which quality remained good, 40° C. (weeks) [2]: 0 weeks
PDI [3, 4]: 0.088
ζ-Average (nm) [3, 4]: 122.5 nm
PDI [3, 5]: 0.182
ζ-Average (nm) [3, 6]: 187.70 nm
Compound: CCCCCCCCCCCCCCC(C)C(=O)OCCCCCCC(O)(CCCCCCOC(=O)C(C)CCCCCCCCCCCCCC)CCCCOC(=O)C1CCN(C)CC1 (centres unmarked) [CL15F 16-1]
Fluc Activity in liver (liver): 2.18E+05 Avg Radiance [p/s/cm2/sr]
F7 enzyme activity (Ratio using MC3 as 1) (F7): 1.37
Fluc Activity in spleen (spleen): 1.27E+06 Avg Radiance [p/s/cm2/sr]

% siRNA encapsulation [1]: 98.3%
% mRNA encapsulation [1]: 95.5%
period for which quality remained good, −80° C. [2]: 0 week
period for which quality remained good, 5° C. [2]: 5 weeks
period for which quality remained good, 25° C. [2]: 5 weeks
period for which quality remained good, 40° C. (weeks) [2]: 5 weeks
PDI [3, 4]: 0.172
ζ-Average (nm) [3, 4]: 200.4 nm
PDI [3, 5]: 0.044
ζ-Average (nm) [3, 6]: 196.80 nm
Compound: CCCCCCCC(CCC)C(=O)OCCCCCCC(O)(CCCCCCOC(=O)C(CCC)CCCCCCC)CCCCOC(=O)C1CCN(C)CC1 (centres unmarked) [CL15F 9-3]
Fluc Activity in liver (liver): 1.16E+06 Avg Radiance [p/s/cm2/sr]
F7 enzyme activity (Ratio using MC3 as 1) (F7): 1.50
Fluc activity in the spleen, compared with CL15F6 (spleen): higher Fluc activity
Fluc Activity in spleen (spleen): 7.47E+06 Avg Radiance [p/s/cm2/sr]

% siRNA encapsulation [1]: 100.3%
% mRNA encapsulation [1]: 99.75%
period for which quality remained good, −80° C. [2]: 1 week
period for which quality remained good, 5° C. [2]: 5 weeks
period for which quality remained good, 25° C. [2]: 5 weeks
period for which quality remained good, 40° C. (weeks) [2]: 5 weeks
PDI [3, 4]: 0.025
ζ-Average (nm) [3, 4]: 101.2 nm
PDI [3, 5]: 0.007
ζ-Average (nm) [3, 6]: 106.50 nm
Compound: CCCCCCCCCC(CCCCCC)C(=O)OCCCCCCC(O)(CCCCCCOC(=O)C(CCCCCC)CCCCCCCCC)CCCCOC(=O)C1CCN(C)CC1 (centres unmarked) [CL15F 11-6]
Fluc activity in the liver, compared with CL15F6 (liver; 0.1 mg mRNA/kg, versus LNP comprising CL15F6 (Table 7)): higher Fluc activity
Fluc Activity in liver (liver): 9.09E+06 Avg Radiance [p/s/cm2/sr]
knockdown activity, compared with MC3 (F7): higher knockdown activity
F7 enzyme activity (Ratio using MC3 as 1) (F7): 0.81
Fluc activity in the spleen, compared with CL15F6 (spleen): higher Fluc activity
Fluc Activity in spleen (spleen): 8.19E+06 Avg Radiance [p/s/cm2/sr]

— patent publication US12458605B2, “Lipid nanoparticle” (National University Corporation Hokkaido University, priority 2020, dated 2025)
